{"source": "patent US20130035255A1", "about": "“CONTROLLED RELEASE HYBRID SYSTEMS” (priority 2010, published 2013)", "key": {"[1]": {"target": "HIV integrase (1-210 aa) and the peptide LYETILILLFLDVDT (SEQ ID NO:7) (Human immunodeficiency virus type 1 group M subtype B, UniProt P04585, G1270S/R1274K)", "format": "cell-based", "details": "yeast screening strain"}, "GAL^BD-PRNHR-GAL^AD": {"target": "GAL^BD-PRNHR-GAL^AD (Homo sapiens, UniProt P06401)", "format": "cell-based, yeast", "details": "control strain, FIG. 4"}, "[2]": {"target": "GAL4^AD-HIV integrase (1-210 a.a.) and GAL4^BD-PR^LBD-INF5 (Homo sapiens, UniProt P06401)", "assay": "steroid release two hybrid yeast LacZ assay (CUG fluorescence)", "format": "cell-based", "details": "strain expressing integrase fused to GAL4^AD and the interacting peptide"}, "HIV integrase": {"target": "HIV integrase (Human immunodeficiency virus type 1 group M subtype B, UniProt P04585)", "assay": "biochemical", "format": "binding"}, "[3]": {"target": "T1, GAL4^AD control (pVT 702, GAL4 activation domain alone)", "T1 construct": "also called pADH-GAL^AD base vector", "T1 chain": "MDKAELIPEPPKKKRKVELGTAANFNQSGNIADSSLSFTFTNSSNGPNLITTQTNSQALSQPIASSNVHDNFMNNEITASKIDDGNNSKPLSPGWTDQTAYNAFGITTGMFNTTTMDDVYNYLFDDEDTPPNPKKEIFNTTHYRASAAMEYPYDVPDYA", "assay": "steroid release yeast two-hybrid, LacZ reporter"}}, "note": "Where no end group is shown, it is not given here."}
{"molecule": "CC(=O)[C@H]1CC[C@H]2[C@@H]3CCC4=CC(=O)CC[C@]4(C)[C@H]3CC[C@]12C", "note": "[progesterone]", "values": [{"measurement": "signal-to-background", "setting": "[1]; 8 μM progesterone", "value": "~4"}, {"measurement": "expression of beta-galactosidase", "setting": "[1]; FIG. 3 dose response", "value": "stimulated expression of beta-galactosidase"}, {"measurement": "signal-to-background", "setting": "GAL^BD-PRNHR-GAL^AD", "value": "~100"}, {"measurement": "signal (RFU)", "setting": "[2]", "value": "increase in signal"}]}
{"molecule": "LYETILILLFLDVDT [SEQ ID NO:7, LYETILILLFLDVDT]", "values": [{"measurement": "Kd", "setting": "HIV integrase", "value": "~5", "unit": "µM"}]}
{"molecule": "GAL4^BD-PR^LBD-INF5 hybrid protein (GAL4 DNA binding domain fused to the progesterone receptor ligand binding domain and the HIV integrase inhibitory peptide … (other, also called GAL4^BD-PR^LBD-IN5) MKLLSSIEQACDICRLKKLKCSKEKPKCAKCLKNNWECRYSPKTKRSPLTRAHLTEVESRLERLEQLFLLIFPREDLDMILKMDSLQDIKALLTGLFVQDNVNKDAVTDRLASVETDMPLTLRQHRISATSSSEESSNKGQRQLTVSPVLQYPALTMIQLIPPLINLLMSIEPDVIYAGHDNTKPDTSSSLLTSLNQLGERQLLSVVKWSKSLPGFRNLHIDDQITLIQYSWMSLMVFGLGWRSYKHVSGQMLYFAPDLILNEQRMKESSFYSLCLTMWQIPQEFVKLQVSQEEFLCMKVLLLLNTIPLEGLRSQTQFEEMRSSYIRELIKAIGLRQKGVVSSSQRFYQLTKLLDNLHDLVKQLHLYCLNTFIQSRALSVEFPEMMSEVIAAQLPKILAGMVKPLLFHKALYETILILLFLDVDT", "values": [{"measurement": "binding result", "setting": "[3]", "value": "no binding"}]}
